Assay results reported in publication PMC10107917 (ACS Medicinal Chemistry Letters, 2023).
Bridge positions count the residues as written; N and C are the ends. Peptide text beside a SMILES is read from it.

Columns and labels:
[1] = tested on: furin-like enzyme activity in PANC-1 cell lysate; assay: Total furin-like enzyme activity in PANC-1 cell lysate; assay type: biochemical, human; conditions: peptide 100 µM
Protocol: The presence of furin in PANC-1 cell lysate was indicated by analyzing the release of fluorescent AMC product after incubation of furin substrate (Pyr-Arg-Thr-Lys-Arg-AMC) in the lysate, as described elsewhere.[31],[32] However, we are aware that this assay tends to reflect total furin-like enzyme activity rather than the activity of furin exclusively. This is the case because the liberation of AMC may be catalyzed not only by furin but also by an enzyme with a similar substrate preference, such as other PCs.[31] […] For comparison, the effect of a strong trypsin inhibitor, […] SFTI-1, on furin-like activity was insignificant under the same assay conditions. […] It is likely that SFTI-1 may provide protection for furin inhibitors from degradation by trypsin-like proteases. […]
µL for matriptases and 100 µL for furin. Measurements were carried out using excitation and emission wavelengths of 380 nm and 450 nm. The percentage inhibition of an enzyme was calculated relative to the control sample without an inhibitor. […]
Total furin-like enzyme inhibition/activity in PANC-1 cell lysates
Cell line and cell culture. The pancreatic cancer cell line, PANC-1, was obtained from the American Type Culture Collection, ATCC (Manassas, USA). PANC-1, a human pancreatic cancer cell line, was isolated from the pancreatic duct (ATCC, CRL-1469) and was cultured in Dulbecco’s Modified Eagle’s Medium (DMEM) by supplementing 10% fetal bovine serum (FBS) and 1% of penicillin/streptomycin (P/S). Cells were cultured at 37 °C with 5% CO2 in a humidified atmosphere. Cells were maintained in a 75 cm2 tissue culture flask. The medium was replaced every two days. The subcultivation ratio was […]
Preparation of lysates. PANC-1 cells were seeded in a Petri dishes. After 24 hours, […] were collected and centrifuged at 975 × g at 4 °C for 9 minutes. The supernatant was removed, and the cells were resuspended in a cold PBS buffer. The cells were centrifuged again at 900 × g at 4 °C for 5 minutes.
The supernatant was removed. Cells were suspended in Halt Protease Inhibitor Cocktail, EDTA-Free (100X) (Thermo Fisher Scientific). The samples were stored for 2 hours at -80°C. The samples were then defrosted and centrifuged at 16 000 × g at 4 °C for 20 minutes. The supernatant was stored at -80 […]
The inhibitory potency of selected peptides was examined in cell lysate alone or in presence of sunflower trypsin inhibitor (SFTI-1)6 sing furin fluorogenic substrate […] (Pepta Nova, Germany). Furin activity was determined by monitoring the AMC liberation over time with a plate reader. Measurements were performed using 96-well black plates (BRAND, Germany).
The general procedure was according to.7 In short: 20 µL of cell lysate (diluted 10 times with assay buffer pH 7.5 100 mM HEPES with 1 mM CaCl 2) was added to the well containing 60 µL of water, after 15 min in 37 °C 10 µL of peptide solution (final concentration in well 100 µM) was added. After 30 min incubation in 37 °C 10 µL substrate (100 µM final concentration) was added. […]
(§1) Next step was addition of appropriate peptide solution
(§2) (final concentration in well 100 µM) and 30 min incubation in 37 °C. After this time 10 µL substrate (100 µM final concentration) was added to the well. Percentage inhibition of the enzyme was calculated relative to the control sample without inhibitor.
Human serum from plasma (Sigma Aldrich, Germany) was prepared for the assay as referred previously.8 The experiments were carried out according to the procedure described before.2 The initial concentration of the peptide solutions was 1.54 mM. Each peptide solution was then diluted 10 times with human serum and incubated at 37 °C. Immediately after the start of incubation, 1, 2, 3, 5 and 24

[2] = Stability in human serum (HPLC); assay type: in vitro ADME; set-up: remaining at 5 h / remaining at 48 h: dose or concentration left out as unconfirmed; conditions: 37 °C; for remaining at 5 h: after 5 h of incubation, read-out: intact peptide detected by HPLC; for state of peptide in human serum: after 24 h; for remaining at 48 h: after 48 h of incubation, read-out: initial concentration of peptide remaining unchanged (HPLC)
Protocol: Next, we examined the stabilities of inhibitors 3, 5, 6, and FI in human serum (Figure 6). As expected, both monocyclic peptides (3 and FI) were degraded more rapidly than bicyclic inhibitors 5 and 6. After 5 h of incubation, about 25% of intact peptide 3 and 15% of FI were detected by HPLC. […] By contrast, the bicyclic peptides were clearly more resistant and stable. About 59% and 28% (based on HPLC data) of the initial concentrations of peptide 5 and peptide 6, respectively, remained unchanged even after 48 h of incubation. […] This possible protease-driven degradation was not confirmed in any additional experiments and must be treated with caution. It might be also speculated that the observed decrease in concentrations of both bicyclic peptides is related to binding to serum proteins during the long incubation process and subsequent sample preparation before HPLC analysis, as mentioned elsewhere.[36] Generally, our results are in accordance with the widely recognized observation that macrocyclization of peptides increases their stability. […]
as §1, §2
Human serum from plasma (Sigma Aldrich, Germany) was prepared for the assay as referred previously.8 The experiments were carried out according to the procedure described before.2 The initial concentration of the peptide solutions was 1.54 mM. Each peptide solution was then diluted 10 times with human serum and incubated at 37 °C. Immediately after the start of incubation, 1, 2, 3, 5 and 24 […]
hours the samples of 200 μL were taken and mixed with 200 μL of acetonitrile to separate the human serum proteins. The formed precipitate was removed by centrifugation for 10 min at 13,000 rpm. The supernatant was stored in 3-4 °C for at least 1 hour before being analyzed by RP-HPLC (linear gradient 10-90% phase B, 40 min., Kinetex 5 μm XB-C18 100Å 150 x 4.6 mm) and MALDI-MS (Autoflex maX MALDI-TOF spectrometer, Bruker Daltonics, Germany). In order to determine peptide stability at each time point, the peptide peak area from recorded chromatograms was compared with the peptide peak area obtained directly after mixing peptide and plasma, and expressed as its percentage.
Molecular dynamics simulations […]
(Figure 5SA) bound to the furin active site were built based on the crystal structure of MT-SP1 in complex with SFTI-1 (PDB ID: 1P8J 2.0 Å) by aligning catalytic triad of both proteins in PyMOL, Molecular Graphics System, Version 2.0 Schrödinger, LLC software. Next, SFTI-1 peptide was replaced by one of the five designed ligands (Figure 5SB). Five resulting furin-inhibitor complexes were further used as starting structures for the molecular dynamic (MD) calculations.
The AMBER20 suite was used to perform MD simulations,9 ff14SBonlysc10 force field parameters were used. The initial complex structures were built in the xLeap module of AMBER20. The periodic boundary conditions with TIP3P11 octahedral water box and Na+ counterions were used. Two steps of energy minimization were performed: first 500 steepest descent and then 1000 conjugate gradient cycles with harmonic restraints of 10 kcal/mol/Å2 on the solute, next 3000 steepest descent and 3000 conjugate gradient cycles without restraints. Next, the systems were heated up to 300K for 10 ps in NVT ensemble followed by the simulations in NPT ensemble at the pressure of 105 Pa. Finally, five independent MD production runs of 100 ns for each furin-inhibitor complex were performed in NPT ensemble. The time integration step was 2 fs, the cutoff for non-bonded interactions was 8 Å, the SHAKE algorithm for the covalent bonds that included hydrogen atoms12 and the Particle Mesh Ewald procedure13 were used. The […]

Row | SMILES | effect on furin-like activity in PANC-1 cell lysate [1] | reduction of initial enzyme activity in PANC-1 cell lysate ([1]; without SFTI-1) | remaining at 5 h [2] | state of peptide in human serum [2] | remaining at 48 h [2]
1 | CC[C@H](C)[C@@H]1NC(=O)[C@@H]2CCCN2C(=O)[C@@H]2CCCN2C(=O)[C@H]([C@@H](C)CC)NC(=O)[C@H](CO)NC(=O)[C@H](CCCCN)NC(=O)[C@H](CCCCN)NC(=O)[C@@H](NC(=O)[C@H](CCCNC(=N)N)NC(=O)[C@@H](N)CCCCN)CSSC[C@@H](C(=O)N[C@@H](Cc2ccccc2)C(N)=O)NC1=O [FI, Lys-Arg-Cys(&)-Lys-Lys-Ser-Ile-Pro-Pro-Ile-Cys(&)-Phe-NH2, reference compound] (H-KRCKKSIPPICF-NH2; disulfide 3-11; N-terminus assumed) | reduced furin-like activity | about 50% | ~15% | completely degraded | –
2 | CC[C@H](C)[C@@H]1NC(=O)[C@@H]2CCCN2C(=O)[C@@H]2CCCN2C(=O)[C@H]([C@@H](C)CC)NC(=O)[C@H](CO)NC(=O)[C@H](CCCCN)NC(=O)[C@H](CCCCN)NC(=O)[C@@H](NC(=O)[C@H](CCCNC(=N)N)NC(=O)[C@H](CCCNC(=N)N)NC(=O)[C@@H](N)CCCNC(=N)N)CSSC[C@@H](C(=O)N[C@@H](Cc2ccccc2)C(N)=O)NC1=O [inhibitor 3, Arg-Arg-Arg-Cys(&)-Lys-Lys-Ser-Ile-Pro-Pro-Ile-Cys(&)-Phe-NH2] (H-RRRCKKSIPPICF-NH2; disulfide 4-12) | reduced furin-like activity | – | ~25% | completely degraded | –
3 | CC[C@H](C)[C@@H]1NC(=O)[C@@H]2CCCN2C(=O)[C@@H]2CCCN2C(=O)[C@H]([C@@H](C)CC)NC(=O)[C@H](CO)NC(=O)[C@H](CCCCN)NC(=O)[C@H](CCCCN)NC(=O)[C@@H]2CSSC[C@H](NC1=O)C(=O)N[C@@H](Cc1ccccc1)C(=O)N[C@@H](CCCCN)C(=O)N[C@@H](CCCNC(=N)N)C(=O)N[C@@H](CCCNC(=N)N)C(=O)N2 [inhibitor 5, &^1Lys-Arg-Arg-Cys(&^2)-Lys-Lys-Ser-Ile-Pro-Pro-Ile-Cys(&^2)-Phe&^1] (cyclo(KRRCKKSIPPICF); disulfide 4-12) | reduced furin-like activity | – | – | – | ~59%
4 | CC[C@H](C)[C@@H]1NC(=O)[C@@H]2CCCN2C(=O)[C@@H]2CCCN2C(=O)[C@H]([C@@H](C)CC)NC(=O)[C@H](CO)NC(=O)[C@H](CCCCN)NC(=O)[C@H](CCCCN)NC(=O)[C@@H]2CSSC[C@H](NC1=O)C(=O)N[C@@H](Cc1ccccc1)C(=O)N[C@@H](CCCNC(=N)N)C(=O)N[C@@H](CCCNC(=N)N)C(=O)N[C@@H](CCCNC(=N)N)C(=O)N2 [inhibitor 6, &^1Arg-Arg-Arg-Cys(&^2)-Lys-Lys-Ser-Ile-Pro-Pro-Ile-Cys(&^2)-Phe&^1] (cyclo(RRRCKKSIPPICF); disulfide 4-12) | reduced furin-like activity | – | – | – | ~28%
